Assay results as given in ChEMBL document CHEMBL1139580, “Pyrrolo[1,2-a][1,4]benzodiazepine: a novel class of non-azole anti-dermatophyte anti-fungal agents” (Bioorg Med Chem Lett, 2005).
Values after ≈ are worked out from the molar mass of the structure shown.

Legend:
Candida parapsilosis = test: Minimum inhibitory concentration against Candida B66126 parapsilosis by microdilution method; format: functional; details: Lodderomyces parapsilosis
Aspergillus fumigatus = test: Minimum inhibitory concentration against Aspergillus fumigatus B42928 by microdilution method; format: functional
Cryptococcus neoformans = test: Minimum inhibitory concentration against Cryptococcus neoformans B66663 by microdilution method; format: functional
[1] = Minimum inhibitory concentration against Trichophyton mentagrophytes B70554 by microdilution method; format: functional; details: Trichophyton benhamiae
[2] = Minimum inhibitory concentration against Sporothrix schenckii B64284 by microdilution method; format: functional
[3] = Minimum inhibitory concentration against Trichophyton rubrum B68183 by microdilution method; format: functional
[4] = Minimum inhibitory concentration against Microsporum canis B68128 by microdilution method; format: functional
[5] = Bioavailability in plasma of Microsporum canis infected guinea pig after […] administration of 2 mg/kg dose; format: ADME, organism-based, Cavia porcellus; details: read-out: Activity

Structure (SMILES)	MIC (Candida parapsilosis) [µM]	MIC (Aspergillus fumigatus) [µM]	MIC (Cryptococcus neoformans) [µM]	MIC [1] [µM]	MIC [2]	MIC [3] [µM]	MIC [4] [µM]	bioavailability [5] [%]
CCc1ccc(C2NCc3ccc(Cl)cc3-n3cccc32)cc1 (centres undefined)	100 (≈ 32.3 µg/mL)	100 (≈ 32.3 µg/mL)	100 (≈ 32.3 µg/mL)	1 (≈ 0.323 µg/mL)	100 µM (≈ 32.3 µg/mL)	0.1 (≈ 0.0323 µg/mL)	1 (≈ 0.323 µg/mL)	
Clc1cccc2c1CNC(c1ccc(Br)cc1)c1cccn1-2 (centres undefined)	100 (≈ 37.4 µg/mL)	10 (≈ 3.74 µg/mL)	100 (≈ 37.4 µg/mL)	0.21 (≈ 0.0785 µg/mL)	100 µM (≈ 37.4 µg/mL)	0.21 (≈ 0.0785 µg/mL)	0.32 (≈ 0.12 µg/mL)	
CCc1ccc(C2NCc3c(Cl)cccc3-n3cccc32)cc1 (centres undefined)	1 (≈ 0.323 µg/mL)	3.2 (≈ 1.03 µg/mL)	100 (≈ 32.3 µg/mL)	0.1 (≈ 0.0323 µg/mL)	100 µM (≈ 32.3 µg/mL)	0.03 (≈ 0.00969 µg/mL)	0.32 (≈ 0.103 µg/mL)	
CCc1ccc(C2=NCc3ccc(Cl)cc3-n3cccc32)cc1	1 (≈ 0.321 µg/mL)	0.32 (≈ 0.103 µg/mL)	1 (≈ 0.321 µg/mL)	0.1 (≈ 0.0321 µg/mL)	6.6 µM (≈ 2.12 µg/mL)	0.065 (≈ 0.0209 µg/mL)	0.32 (≈ 0.103 µg/mL)	
Clc1cccc2c1CNC(c1ccccc1)c1cccn1-2 (centres undefined)	100 (≈ 29.5 µg/mL)	100 (≈ 29.5 µg/mL)	100 (≈ 29.5 µg/mL)	100 (≈ 29.5 µg/mL)	100 µM (≈ 29.5 µg/mL)	0.32 (≈ 0.0943 µg/mL)	100 (≈ 29.5 µg/mL)	
CCc1ccc(C2NCc3cc(Cl)ccc3-n3cccc32)cc1 (centres undefined)	100 (≈ 32.3 µg/mL)	100 (≈ 32.3 µg/mL)	100 (≈ 32.3 µg/mL)	51.6 (≈ 16.7 µg/mL)	100	3.2 (≈ 1.03 µg/mL)	100 (≈ 32.3 µg/mL)	
CCc1ccccc1C1NCc2c(Cl)cccc2-n2cccc21 (centres undefined)	100 (≈ 32.3 µg/mL)	100 (≈ 32.3 µg/mL)	100 (≈ 32.3 µg/mL)	100 (≈ 32.3 µg/mL)	100 µM (≈ 32.3 µg/mL)	10 (≈ 3.23 µg/mL)	100 (≈ 32.3 µg/mL)	
CCc1ccc(C2NCc3ccccc3-n3cccc32)cc1 (centres undefined)	100 (≈ 28.8 µg/mL)	1 (≈ 0.288 µg/mL)	100 (≈ 28.8 µg/mL)	3.2 (≈ 0.923 µg/mL)	100 µM (≈ 28.8 µg/mL)	1 (≈ 0.288 µg/mL)	100 (≈ 28.8 µg/mL)	
CCc1ccc(C2NCc3c(F)cccc3-n3cccc32)cc1 (centres undefined)	10 (≈ 3.06 µg/mL)	10 (≈ 3.06 µg/mL)	100 (≈ 30.6 µg/mL)	1 (≈ 0.306 µg/mL)	100 µM (≈ 30.6 µg/mL)	0.32 (≈ 0.098 µg/mL)	3.2 (≈ 0.98 µg/mL)	
CCCc1ccc(C2NCc3c(Cl)cccc3-n3cccc32)cc1 (centres undefined)	6.6 (≈ 2.22 µg/mL)	100 (≈ 33.7 µg/mL)	100 (≈ 33.7 µg/mL)	0.66 (≈ 0.222 µg/mL)	100 µM (≈ 33.7 µg/mL)	0.32 (≈ 0.108 µg/mL)	0.66 (≈ 0.222 µg/mL)	
CCc1ccc([C@H]2NCc3c(Cl)cccc3-n3cccc32)cc1	0.32 (≈ 0.103 µg/mL)	1 (≈ 0.323 µg/mL)	100 (≈ 32.3 µg/mL)	0.01 (≈ 0.00323 µg/mL)	100 µM (≈ 32.3 µg/mL)	0.03 (≈ 0.00969 µg/mL)	0.32 (≈ 0.103 µg/mL)	< 5
CCc1ccc(C2=NCc3ccccc3-n3cccc32)cc1	0.32 (≈ 0.0916 µg/mL)	1 (≈ 0.286 µg/mL)	100 (≈ 28.6 µg/mL)	0.32 (≈ 0.0916 µg/mL)	100 µM (≈ 28.6 µg/mL)	0.065 (≈ 0.0186 µg/mL)	0.32 (≈ 0.0916 µg/mL)	
CCc1ccc([C@@H]2NCc3c(Cl)cccc3-n3cccc32)cc1	100 (≈ 32.3 µg/mL)	55 (≈ 17.8 µg/mL)	100 (≈ 32.3 µg/mL)	1 (≈ 0.323 µg/mL)	100 µM (≈ 32.3 µg/mL)	0.32 (≈ 0.103 µg/mL)	0.32 (≈ 0.103 µg/mL)	
CCc1cccc(C2NCc3c(Cl)cccc3-n3cccc32)c1 (centres undefined)	10 (≈ 3.23 µg/mL)	10 (≈ 3.23 µg/mL)	100 (≈ 32.3 µg/mL)	1 (≈ 0.323 µg/mL)	100 µM (≈ 32.3 µg/mL)	0.1 (≈ 0.0323 µg/mL)	1 (≈ 0.323 µg/mL)	
Cc1ccc(C2NCc3c(Cl)cccc3-n3cccc32)cc1 (centres undefined)	100 (≈ 30.9 µg/mL)	100 (≈ 30.9 µg/mL)	100 (≈ 30.9 µg/mL)	2.1 (≈ 0.649 µg/mL)	100 µM (≈ 30.9 µg/mL)	0.1 (≈ 0.0309 µg/mL)	2.1 (≈ 0.649 µg/mL)	
CCc1ccc(C2=NCc3c(Cl)cccc3-n3cccc32)cc1	0.32 (≈ 0.103 µg/mL)	0.32 (≈ 0.103 µg/mL)	100 (≈ 32.1 µg/mL)	0.03 (≈ 0.00962 µg/mL)	100 µM (≈ 32.1 µg/mL)	0.01 (≈ 0.00321 µg/mL)	0.03 (≈ 0.00962 µg/mL)	
CCc1ccc(C2NCc3c(SC)cccc3-n3cccc32)cc1 (centres undefined)	100 (≈ 33.4 µg/mL)	100 (≈ 33.4 µg/mL)	100 (≈ 33.4 µg/mL)	3.2 (≈ 1.07 µg/mL)	100 µM (≈ 33.4 µg/mL)	0.32 (≈ 0.107 µg/mL)	3.2 (≈ 1.07 µg/mL)	
CN(C/C=C/C#CC(C)(C)C)Cc1cccc2ccccc12 [TERBINAFINE]	0.32 (≈ 0.0933 µg/mL)	0.32 (≈ 0.0933 µg/mL)	1 (≈ 0.291 µg/mL)	0.01 (≈ 0.00291 µg/mL)	0.32 µM (≈ 0.0933 µg/mL)	0.003 (≈ 0.000874 µg/mL)	0.03 (≈ 0.00874 µg/mL)	
CCc1ccc(C2NCc3cccc(Cl)c3-n3cccc32)cc1 (centres undefined)	100 (≈ 32.3 µg/mL)	100 (≈ 32.3 µg/mL)	100 (≈ 32.3 µg/mL)	3.2 (≈ 1.03 µg/mL)	100 µM (≈ 32.3 µg/mL)	1 (≈ 0.323 µg/mL)	3.2 (≈ 1.03 µg/mL)	
CC(C)(C)c1ccc(C2NCc3c(Cl)cccc3-n3cccc32)cc1 (centres undefined)	55 (≈ 19.3 µg/mL)	100 (≈ 35.1 µg/mL)	100 (≈ 35.1 µg/mL)	1 (≈ 0.351 µg/mL)	55 µM (≈ 19.3 µg/mL)	1 (≈ 0.351 µg/mL)	0.66 (≈ 0.232 µg/mL)	
CCc1ccc(C2NCc3c(OC)cccc3-n3cccc32)cc1 (centres undefined)	100 (≈ 31.8 µg/mL)	100 (≈ 31.8 µg/mL)	100 (≈ 31.8 µg/mL)	10 (≈ 3.18 µg/mL)	100 µM (≈ 31.8 µg/mL)	3.2 (≈ 1.02 µg/mL)	10 (≈ 3.18 µg/mL)	
CCc1ccc(C2c3cccn3-c3cccc(Cl)c3CN2C)cc1 (centres undefined)	100 (≈ 33.7 µg/mL)	100 (≈ 33.7 µg/mL)	100 (≈ 33.7 µg/mL)	55 (≈ 18.5 µg/mL)	100 µM (≈ 33.7 µg/mL)	51.6 (≈ 17.4 µg/mL)	100 (≈ 33.7 µg/mL)	
CCc1ccc(C2NCc3c(C)cccc3-n3cccc32)cc1 (centres undefined)	55 (≈ 16.6 µg/mL)	100 (≈ 30.2 µg/mL)	100 (≈ 30.2 µg/mL)	1 (≈ 0.302 µg/mL)	100 µM (≈ 30.2 µg/mL)	0.21 (≈ 0.0635 µg/mL)	2.1 (≈ 0.635 µg/mL)	
Clc1ccc(C2NCc3c(Cl)cccc3-n3cccc32)cc1 (centres undefined)	100 (≈ 32.9 µg/mL)	51.6 (≈ 17 µg/mL)	100 (≈ 32.9 µg/mL)	0.66 (≈ 0.217 µg/mL)	100 µM (≈ 32.9 µg/mL)	0.32 (≈ 0.105 µg/mL)	0.66 (≈ 0.217 µg/mL)	
